Assay results taken from patent US9840494B2, “Quinazoline derivative” (Tianjin Hemay Oncology Pharmaceutical Co., Ltd., priority 2013, dated 2017).
Where two headings read alike, the source gives them in different places.

Assays:
[1] = system: human epidermoid carcinoma cell line A431; test: In vitro inhibitory action on human tumor cells, A431 (MTT); assay type: cell-based; details: MTT assay, usually 3 days, read-out: Inhibitory activity on human epidermoid cancer cell line A431 (IC50)
Method: (§1) Human epidermoid carcinoma cell line A431, human non-small cell lung cancer cell line HCC827, head and neck cancer cell lines Fadu and human pancreatic cancer cell line AsPC-1 were purchased from Cell Bank, Chinese Academy of Sciences.
(§2) 3.2 Cell culture method: cells were cultured in the complete medium at 37° C. under 5% CO2 and saturated humidity until logarithmic growth phase, i.e., adherent cells substantially approach complete confluence, and then collected for subsequent assay. For the adherent cells, they were firstly digested with trypsin/EDTA to detach.
(§3) 3.3 A certain number of cells were seeded into 96-well cell culture plates (hereinafter referred to as 96-well plates). […] Finally, total cellular protein in the wells was determined using SRB assay, or cell viability was determined with MTT assay.
(§4) 3.3.1 The cell seeding concentration was determined by cell growth curve assay which completely simulates compound inhibition assay process. […]
(§5) 3.4 Dilution and addition of compounds: the concentration of DMSO that can be tolerant by the cells was determined by DMSO tolerance assay, and thereby selecting the dilution and addition methods of compounds. The effects of different concentrations of DMSO on cell growth were determined by DMSO tolerance assay. […] Two methods are finally determined as follows. […]

EGFR (L858R/T790M) = molecular target: T1, EGFR (L858R/T790M) (Homo sapiens, UniProt P00533, L858R/T790M); test: Inhibitory action on tyrosine kinase activity of mutant EGFR (L858R/T790M), Caliper; assay type: biochemical; details: kinase 10 nM, ATP 19 μM, polypeptide 3 μM, 60 min
T1 construct: purchased Invitrogen Corporation PR8911A
T1 sequence (P00533 25-1210 T790M/L858R): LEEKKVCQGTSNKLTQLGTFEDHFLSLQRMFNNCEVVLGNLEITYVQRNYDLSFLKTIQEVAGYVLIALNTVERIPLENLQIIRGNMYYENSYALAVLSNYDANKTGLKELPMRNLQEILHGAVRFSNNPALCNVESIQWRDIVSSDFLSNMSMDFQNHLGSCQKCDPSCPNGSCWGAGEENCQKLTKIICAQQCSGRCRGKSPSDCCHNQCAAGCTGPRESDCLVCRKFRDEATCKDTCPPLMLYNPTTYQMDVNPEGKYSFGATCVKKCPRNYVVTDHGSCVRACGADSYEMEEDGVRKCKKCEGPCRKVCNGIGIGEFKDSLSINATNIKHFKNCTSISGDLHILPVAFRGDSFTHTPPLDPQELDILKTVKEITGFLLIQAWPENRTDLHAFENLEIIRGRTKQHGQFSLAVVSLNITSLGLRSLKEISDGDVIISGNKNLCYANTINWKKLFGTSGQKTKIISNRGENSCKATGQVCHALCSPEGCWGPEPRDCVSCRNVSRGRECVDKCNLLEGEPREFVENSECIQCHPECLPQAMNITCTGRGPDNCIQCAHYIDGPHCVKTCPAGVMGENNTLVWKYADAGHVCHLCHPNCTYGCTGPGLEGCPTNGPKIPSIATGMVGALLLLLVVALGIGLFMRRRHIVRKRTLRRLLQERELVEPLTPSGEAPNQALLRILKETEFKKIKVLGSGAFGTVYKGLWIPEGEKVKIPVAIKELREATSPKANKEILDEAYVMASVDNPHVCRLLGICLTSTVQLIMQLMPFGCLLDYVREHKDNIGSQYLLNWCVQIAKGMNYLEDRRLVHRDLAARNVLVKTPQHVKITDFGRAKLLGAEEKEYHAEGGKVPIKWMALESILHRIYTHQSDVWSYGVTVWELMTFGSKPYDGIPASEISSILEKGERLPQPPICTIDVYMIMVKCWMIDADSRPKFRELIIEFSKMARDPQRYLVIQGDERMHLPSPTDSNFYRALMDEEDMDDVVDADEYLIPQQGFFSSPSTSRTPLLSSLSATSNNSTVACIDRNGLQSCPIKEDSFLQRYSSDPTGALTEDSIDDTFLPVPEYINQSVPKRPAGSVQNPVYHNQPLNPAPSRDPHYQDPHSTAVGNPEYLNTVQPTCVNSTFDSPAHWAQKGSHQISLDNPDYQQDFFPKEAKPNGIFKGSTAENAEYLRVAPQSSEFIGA
Method: EGFR(L858R/T790M): Invitrogen Corporation, catalogue No. PR8911A
P22(polypeptide substrate): GL Biochem Ltd., catalogue No. 112393
3.2 Formulation of Kinase Buffer: 50 mM HEPES, pH 7.5, 0.0015% Brij-35, 10 mM MgCl2, and 2 mM DTT(dithiothreitol).
3.3 Formulation of Termination Solution: 100 mM HEPES, pH 7.5, 0.015% Brij-35, 0.2% Coating Reagent #3 (prepared by Caliper workstation), and 50 mM EDTA (ethylene diamine tetraacetic acid).
3.4.1 Formulation of a 50-fold concentration of a compound: for example, if the final concentration of the compound for assay is 12.5 nM, 50-fold concentration is 625 nM. The 50-fold concentration of the compound working solution was subjected to a 4-fold dilution with DMSO in a 96-well plate to obtain seven diluted concentrations in total.
3.4.2 Transferring the 5-fold concentration of compound to a reaction plate: 10 μl solution was transferred from each well of the above-mentioned 96-well plate to another 96-well plate, and then 90 μl kinase buffer was added. 5 μl solution was transferred from the above 96-well plate to a 384-well reaction plate. […]
3.6 The substrate conversion rate data was read with Caliper. […]
Inhibition rate %=(max-conversion rate)/(max-min)x100%, wherein max refers to the conversion rate of the DMSO control, min refers to the conversion of enzyme-free control. IC50 values were determined by the inhibition curve.

[2] = system: human non-small cell lung cancer cell line HCC827; test: In vitro inhibitory action on human tumor cells, HCC827 (SRB); assay type: cell-based; details: SRB assay, usually 3 days
Method: as §1, §2, §3, §4, §5

[3] = system: human head and neck cancer cell lines Fadu; test: In vitro inhibitory action on human tumor cells, Fadu (MTT); assay type: cell-based; details: 72 h, MTT assay, usually 3 days
Method: as §1, §2, §3, §4, §5

## COCCOc1cc2ncnc(Nc3ccc(F)c(Cl)c3)c2cc1NC(=O)C=C1CCN(CCOC)CC1 [Compound 1, N-[4-(3-chloro-4-fluorophenylamino)-7-(2-methoxyethoxy)quinazolin-6-yl]-2-[1-(2-methoxyethyl)piperidin-4-ylidene]acetamide]
[1]; Homo sapiens, A-431, 72 h
  IC50: 125 nM
EGFR (L858R/T790M)
  IC50: 266 nM
[2]; Homo sapiens, HCC827, 72 h
  IC50: 8 nM

## COCCOc1cc2ncnc(Nc3ccc(F)c(Cl)c3)c2cc1NC(=O)C=C1CCN(CCOC)CC1.CS(=O)(=O)O [Compound 3, N-[4-(3-chloro-4-fluorophenylamino)-7-(2-methoxyethoxy)quinazolin-6-yl]-2-[1-(2-methoxyethyl)piperidin-4-ylidene]acetamide dimethylsulfonate]
[1]
  IC50: 138 nM
[3]
  IC50: 132 nM
EGFR (L858R/T790M)
  IC50: 235 nM
[2]
  IC50: 10 nM
